In test [1] the test system is rats bearing the AH130 tumour. Nature of the test: Muscle mass during cancer-induced cachexia, rats with AH130 tumour. The format is in vivo, rat. Particulars: 1 μg/g bodymass s.c. twice daily for 6 d, six hind limb muscles, FIG. 18. The method, then: In this study, 21 male rats (three months of age) were allocated at random into three groups of seven. Group one was injected i.p. with sterile saline (non-cancer controls), groups two and three were inoculated i.p. with 100 μl of the AH130 tumour (Baracos et al 1995). Groups one and two were injected twice daily s.c. for six days with sterile saline, while group three was injected twice daily s.c. for six days with 1 μg/g bodymass with roMSV47. Rats were killed at day six and, at death, skeletal muscles (biceps femoris, gastrocnemius, tibialis anterior, quadriceps femoris, plantaris and soleus) were excised from the right hind limb of each rat and the wet mass expressed as a percent of the initial body mass on day 0.
The ascites hepatoma 130 (AH130) was obtained as a gift from Dr Vicki Baracos (University of Alberta, Edmonton, Alberta, Canada) and stored in cryovials in liquid nitrogen in a solution of 50% DMSO and 10% BSA. An aliquot was retrieved and thawed and 1 ml was injected i.p. into each of three donor rats and allowed to grow for seven days. The rats were killed by CO2 asphyxiation followed by cervical dislocation. […] The volume of ascites in the peritoneal cavity was removed with a syringe and the volume recorded. Six muscles in the right hind limb (biceps femoris, gastrocnemius, soleus, plantaris, tibialis anterior and quadriceps femoris) were excised and their mass recorded. […]

For test [2], the system named is creatine kinase (CK). Description: Creatine kinase (CK-NAC) assay of blood samples of AH130 tumour rats. Particulars: 1 μg/g bodymass s.c. twice daily for 6 d, day 6, FIG. 19. Type of test: in vivo, rat. The method, then:
The ascites hepatoma 130 (AH130) was obtained as a gift from Dr Vicki Baracos (University of Alberta, Edmonton, Alberta, Canada) and stored in cryovials in liquid nitrogen in a solution of 50% DMSO and 10% BSA. An aliquot was retrieved and thawed and 1 ml was injected i.p. into each of three donor rats and allowed to grow for seven days. The rats were killed by CO2 asphyxiation followed by cervical dislocation. The ascites was harvested and 100 μl was injected i.p. into each of 14 recipient male rats (280±6 g). An equal volume of saline was injected i.p. into seven control rats. Of the 14 rats inoculated with the AH130 tumour, seven were injected s.c. twice daily with roMSV47 at a dose of 1 μg/g body mass diluted in sterile saline to a volume of 1 ml. […] The volume of ascites in the peritoneal cavity was removed with a syringe and the volume recorded. Six muscles in the right hind limb (biceps femoris, gastrocnemius, soleus, plantaris, tibialis anterior and quadriceps femoris) were excised and their mass recorded.
CK-NAC was assayed in a commercial kit (Randox laboratories Ltd, UK). Reaction volumes were scaled down proportionately so that the assays could be performed in 96-well microtitre plates with samples assayed in triplicate (CK-NAC) and read as a change in U/L per min as per manufacturer's instructions.

Test [3] concerns primary ovine myoblasts. Nature of the test: Proliferation assay of primary ovine myoblasts (methylene blue). The format is cell-based. Conditions: roMSV65 0 to 10 μg/ml, 72 h, FIG. 3B. The method, then:
Myoblasts were seeded in 96-well tissue culture plates (Nunc, Roskilde, Denmark) at a cell density of 1000 cells per well in 200 μl of Dulbecco's modified Eagle's medium (DMEM, Invitrogen, California) supplemented with foetal bovine serum (FBS, 10% v/v, Invitrogen), penicillin (1×10^5 IU/l, Sigma, St Louis, Mo., USA) and streptomycin (100 mg/l, Sigma) buffered with NaHCO3 containing phenol red (7.22 nmol/l) as a pH indicator, and incubated overnight at 37° C. with 5% CO2. Medium was replaced with DMEM 10% FBS test medium containing 0, 0.001, 0.003, 0.01, 0.03, 0.1, 0.3, 1, 3 or 10 μg/ml oMSV65 in a semi-random arrangement of eight replicates (n=8) for each test medium. Plates were incubated at 37° C. with 5% CO2 for 72 hours, and then the medium was removed. The wells were washed with 200 μl of phosphate buffered saline (PBS, Oxoid, UK) and fixed with 100 μl of 10% formaldehyde, 0.9% NaCl solution for at least one hour. The fixative was then removed and 100 μl of 1% methylene blue stain in 0.01 M borate buffer (pH 8.5) was added to each well and incubated for 30 min at room temperature. Excess stain was removed by four sequential washes in borate buffer. Methylene blue was eluted from the cells by the addition of 100 μl 1:1 (v/v) ethanol/0.1 HCl. The plates were gently shaken and the absorbance was measured at 655 nm using a microplate photometer (FIGS. 3a and 3b).

“Also recorded” adds a separate entry of the source.

On to “roMSV47: 47 amino acid C-terminal mature ovine MSV fragment (SEQ ID NO: 50), recombinant from E. coli (IIFLEVYIQFCSILGEAVFKRQSKSIHFCQNFKIIACLCNTAAFRMK; Ovis aries)”, for which the “reduction of generalised wasting of skeletal muscle induced by cancer” value in test [1] is 20%. Moreover, in test [2], the “concentrations of creatine kinase (CK)” value is reported as “partially restores concentrations of CK; also recorded: not as markedly reduced”.

B1: roMSV65: 65 amino acid C-terminal peptide of ovine MSV (SEQ ID NO: 49) expressed as recombinant protein in E. coli (protein)
chain: VHFYTPPYGQWIFHKERKIIFLEVYIQFCSILGEAVFKRQSKSIHFCQNFKIIACLCNTAAFRMK
modifications: Ovis aries
For the molecule B1, the “myoblast cell growth (proliferation)” value in test [3] is recorded as “stimulate myoblast cell growth in a dose dependent manner”.

These data come from patent US8455448B2, “Myostatin isoform” (Myostin Therapeutics Pty Ltd, priority 2004, dated 2013).
